{"source": "patent US10328051B2", "about": "“Proline or proline derivatives for the treatment of dementia” (priority 2014, dated 2019)", "key": {"[1]": {"assay": "Multiple dose ascending bioavailability and safety study (Phase I) with oral CHP (Study 0202-71)", "format": "in vivo, human", "method": "Example 5—Study Title: Multiple Dose Ascending Bioavailability and Safety Study Phase 1 with Oral CHP-GALMED Study No: 0202-71\n12 healthy Caucasian males were recruited (age: 18-45 years).\nMultiple doses of CHP were orally administered: • 4×2.0 g CHP per day, for 14 consecutive days (total daily dose=8.0 g CHP) • 4×3.0 g CHP per day, for 14 consecutive days (total daily dose=12.0 g CHP) Each dose level was administered to all volunteers.\nObjectives • To determine the pharmacokinetic parameters and safety of CHP and THP in plasma following oral administration of multiple doses of 8 g CHP (4×2 g) and 12 g CHP (4×3 g)—4× daily, τ=6 h, respectively, in 12 healthy subjects on Day 1 and Day 14. • To model and simulate plasma concentrations of CHP and THP during Days 1 to 14."}, "[2]": {"assay": "Single ascending oral doses of CHP (Study 1001-68) and single IV dose (Study 0302-72): pharmacokinetics and safety in healthy volunteers", "format": "in vivo, human", "details": "healthy subjects", "excerpt": "study title Safety, tolerability and pharmacokinetic profile of single ascending doses of oral cis-4-hydroxy-L-proline (CHP) in healthy volunteers Galmed study no. 1001-68-. Results FIGS. 3 and 4.\nStudy title: Single Dose Absolute Bioavailability (intravenous IV solution) and Safety Study of CHP in Healthy Volunteers-GALMED Study No: 0302-72. Results are in (FIGS. 5 and 6)\nSix healthy volunteers (male, caucasian—18-45 years old) were recruited from the GCP-Galmed clinical centre. All healthy volunteers provided written informed consent prior to study participation. The study was approved by the independent Ethical Committee.\nAll volunteers were orally administered 2, 4, 6, 8, 10 and 12 grams of CHP with a wash out period of at least one week between doses of CHP.\nThe following blood and urine samples were collected for determination of the pharmacokinetics parameters of CHP and THP:\n10 hours and immediately prior to administration of CHP (0 Hour), and at 0.25, 0.5, 1, 1.5, 2, 2.5, 3, 4, 5, 6, 12 and 24 hours after administration of CHP.\nUrine was collected for the determination of the CHP and THP concentrations and the calculation of the elimination parameters of CHP and THP.\nSix healthy volunteers (male, caucasian—18-45 years old) were recruited from the GCP-Galmed clinical centre. All healthy volunteers provided written informed consent prior to study participation. The study was approved by the independent Ethical Committee. Single doses of CHP were intravenously administered: 2.0 g, 4.0 g (2×2.0 g). Each dose level was administered to all healthy volunteers. There was a washout period of at least one week between doses.\nThe following safety parameters were determined at the pre- and post-study examinations: • 1. Vital signs • 2. Clinical laboratory: Blood chemistry, Haematology, Coagulation, Urinalysis • 3. Adverse events (Signs and Symptoms) have been recorded in each of the two treatment periods."}, "[3]": {"assay": "Tissue distribution, bioaccumulation and pharmacokinetics following multiple dose administration of 3H-CHP in mice (Study IPSS E015)", "format": "in vivo", "details": "multiple dose administration", "excerpt": "Example 2. A Study in Mice on the Tissue Distribution, Bioaccumulation and Pharmacokinetics in Tissues, Connective and BrainTissues Following Multiple Dose Administration of ^3H-CHP Study No. IPSS E015 (FIG. 2)\nAccording to this invention the study has been designed and performed as follows:\nFrom each mouse sacrificed, the following organs & tissues samples were taken:\nLiver, kidney, pancreas, limbic system, spinal fluid, brain stem, cerebrum, cerebellum, cartilage, ligaments and tendons (dense or fibrous connective tissue), loose connective tissue, and reticular connective tissue (supports lymph nodes, bone marrow, and spleen)"}, "[4]": {"assay": "Tissue distribution and pharmacokinetics of single dose of radiolabelled 3H-CHP in mice (Study IPSS C053)", "format": "in vivo", "details": "for Tissues that accumulated particularly high CHP concentrations: single dose 3H-CHP; for AUC-1 in the stomach / Cmax in the stomach / Cmax in brain & pituitary gland / AUC-1 for remaining carcass as % of the totaled AUC-1 for all tissues & samples: single dose 50 μCi 3H-CHP", "excerpt": "Example 1: Tissue Distribution and Pharmacokinetic Study with CHP Study “Clinical Study in Mice on the Tissue Distribution and Pharmacokinetics of Single Dose of the Radiolabelled ^3H-CHP-Study No.: IPSS C053”—(FIG. 1). This Study has been Designed and Performed According to this Invention\n1. Determination of ^3H-CHP distribution in 25 tissues, remaining carcass and whole blood over time.\n2. Determination of pharmacokinetic parameters of CHP.\n3. Comparison of intravenous (IV), and oral routes of administration.\n^3H-CHP Labelling • CHP was labelled on the 4-prime position using tritium. • The scintillation counting technique detects the tritium atom. • Therefore the counting technique detects CHP and some metabolites which incorporate the tritium. […] They were selected using inclusion and exclusion criteria, and were therefore highly standardised.\nDosing Regimen • 48 animals were each administered 50 μCi ^3H-CHP at the start of the experiment. This was termed time zero (00:00 hrs). • 27 mice were dosed via the intravenous (IV) route. • 21 mice were dosed via the oral route. • Six (6) animals were not administered with CHP. They form two control groups of 3 mice each.\nData Collection • 3 mice were sacrificed following the SOP for anesthesia and according to the following time intervals\nSample Collection • From each sacrificed mouse, the following samples were taken: • Whole BloodEyes & Harderian GlandsKidneys & Adrenal GlandsAortaLiverLungSpleenUrinary BladderBone & Bone MarrowCaecumSmall IntestineLarge IntestineLymph Nodes (Mesenteric) Muscle, PancreasBrain & Pituitary GlandBrown FatSubcutaneous FatHeartThymousBoth TestesProstateSkinStomachThyroidSalivary GlandsRemaining CarcassUrine (collected if possible: in practise this was rare)\nThe remaining carcass sample consisted of the rest after removal of whole blood and the other tissues. Any material cleaned from other tissues listed above was also included. The collected remainings were homogenised before analysis."}, "[5]": {"details": "male, human, plasma, healthy subjects, oral 4×2.0 g CHP/day"}, "[6]": {"details": "oral CHP, administration 4× daily"}, "[7]": {"details": "after oral administration of CHP 2 g-12 g"}}, "data": [{"smiles": "O=C(O)[C@@H]1C[C@@H](O)CN1", "note": "[THP, trans-4-hydroxy-L-proline]", "values": [{"measurement": "Cmax", "setting": "[1]; [5]", "value": 9560, "unit": "ng/mL"}, {"measurement": "Tmax", "setting": "[1]; [5]", "value": 1.5, "unit": "h"}, {"measurement": "half-life", "setting": "[1]; [5]", "value": 12.4, "unit": "h"}, {"measurement": "MRT inf", "setting": "[1]; male, human, plasma, healthy subjects, oral 4×2.0 g CHP/day, read-out: MRT (0-inf)", "value": 19.1, "unit": "h"}, {"measurement": "Accumulation following oral administration", "setting": "[1]; multiple oral doses of CHP", "value": "remarkable extent"}, {"measurement": "Time after which a steady state was observed", "setting": "[1]; multiple oral doses of CHP, 4× daily, simulation of plasma concentration-time curves", "value": "~96", "unit": "h"}, {"measurement": "Css,min lower if 2.0 g of CHP was administered (versus 3.0 g)", "setting": "[1]; [6]", "value": 24, "unit": "%"}, {"measurement": "Increase of AUCss,t, Css,max and Css,ave when the dose was increased from 2.0 g up to 3.0 g", "setting": "[1]; [6]", "value": "approximately 50%"}, {"measurement": "Oral clearance (average)", "setting": "[2]; [7]", "value": 798.42, "unit": "mL/min"}, {"measurement": "Volume of distribution (average)", "setting": "[2]; [7]", "value": 804.70, "unit": "L"}, {"measurement": "Correlation of Cmax and AUC(0-∞) with dose", "setting": "[2]; oral CHP doses 2 g-12 g", "value": "dose linearity"}, {"measurement": "MRT", "setting": "[2]; male, human, blood, after oral administration of CHP 2 g-12 g, read-out: Mean residence time (MRT) (average)", "value": 23.2, "unit": "h"}, {"measurement": "half-life", "setting": "[2]; male, human, in vivo, after oral administration of CHP 2 g-12 g, read-out: Elimination half life (average) (converted)", "value": 14.8, "unit": "h"}, {"measurement": "Tmax", "setting": "[2]; male, human, plasma, after oral administration of CHP 2 g-12 g", "value": 4.92, "unit": "h"}]}, {"smiles": "O=C(O)C1C[C@H](O)CN1", "note": "(stereo partly shown) [^3H-CHP]", "values": [{"measurement": "Tissues with particular high levels of 3H-CHP accumulation", "setting": "[3]", "value": "kidneys and adrenal glands liver, pancreas loose connective tissue cartilage, reticular connective tissue, dense/fibrinous connective tissues"}, {"measurement": "Tissues that accumulated particularly high CHP concentrations", "setting": "[4]; intravenous application", "value": "Pancreas, lymph nodes (mesenteric), kidneys & adrenal Glands, caecum, large intestine, small intestine, spleen, liver, urinary bladder"}, {"measurement": "Tissues that accumulated particularly high CHP concentrations", "setting": "[4]; oral application", "value": "Pancreas, stomach, kidneys & adrenal glands, small intestine, lymph nodes (mesenteric), spleen, caecum, bone & bone marrow, large intestine, and liver"}, {"measurement": "AUC-1 in the stomach", "setting": "[4]; IV", "value": 10.493, "unit": "DPM/mg"}, {"measurement": "Cmax in the stomach", "setting": "[4]; IV", "value": 3.269, "unit": "DPM/mg"}, {"measurement": "Cmax in brain & pituitary gland", "setting": "[4]; IV, control 4 DPM/mg", "value": 876, "unit": "DPM/mg"}, {"measurement": "AUC-1 for remaining carcass as % of the totaled AUC-1 for all tissues & samples", "setting": "[4]; intravenous (IV)", "value": 73.3, "unit": "%"}, {"measurement": "AUC-1 for remaining carcass as % of the totaled AUC-1 for all tissues & samples", "setting": "[4]; oral", "value": 61.8, "unit": "%"}, {"measurement": "AUC-1 in the stomach", "setting": "[4]; oral", "value": 27.297, "unit": "DPM/mg"}, {"measurement": "Cmax in the stomach", "setting": "[4]; oral", "value": 7.361, "unit": "DPM/mg"}, {"measurement": "Cmax in brain & pituitary gland", "setting": "[4]; oral, control 1 DPM/mg", "value": 419, "unit": "DPM/mg"}]}]}
